This note sets out measurements from ChEMBL document CHEMBL5338719, “Recent advance on pleiotropic cholinesterase inhibitors bearing amyloid modulation efficacy” (Eur J Med Chem, 2022).

By inhibition is commonly meant the change of the read-out against control, counted positive when it falls. As usually defined, the IC50 is the midpoint of a concentration-inhibition curve.

Assay [1] concerns the target T1, Amyloid-beta precursor protein (Homo sapiens, UniProt P05067). Description: Inhibition of amyloid beta 42 (unknown origin) self aggregation at 10 uM relative to control.
In assay [2] the target is T1, Amyloid-beta precursor protein. Description: Inhibition of amyloid beta 42 (unknown origin) aggregation at 1 mM for 12 hrs relative to control.
Assay [3] addresses T2, Cholinesterase (Homo sapiens, UniProt P06276). Description: Inhibition of human recombinant BChE expressed in HEK293 cells using butyrylthiocholine as substrate incubated for 120 mins by Ellman's method. (DTNB colorimetry detects thiols as they appear.)
The target of assay [4] is T3, Acetylcholinesterase (Homo sapiens, UniProt P22303). Description: Inhibition of human recombinant AChE expressed in HEK293 cells using acetylthiocholine as substrate incubated for 120 mins by Ellman's method.
Assay [5] deals with T1, Amyloid-beta precursor protein. Description: Inhibition of amyloid beta 42 (unknown origin) aggregation at 25 uM by Thioflavin T-based fluorescence assay relative to control.
In assay [6] the target is T4, Acetylcholinesterase (Electrophorus electricus, UniProt O42275). Description: Inhibition of electric eel AchE using acetylthiocholine as substrate by Ellman's method.
Assay [7] has as its target T5, Cholinesterase (Equus caballus, UniProt P81908). Nature of the assay: Inhibition of equine BChE using butyrylthiocholine as substrate by Ellman's method.
A further assay deals with Beta-secretase 1 (Homo sapiens, UniProt P56817). Description: Inhibition of BACE1 (unknown origin) at 20 uM by fluorescence assay relative to control.
Assay [8] concerns the target T1, Amyloid-beta precursor protein. Description: Inhibition of amyloid beta 42 (unknown origin) fibrillization at 44 uM for 48 hrs by ThT fluorescence assay relative to control.
Assay [9] deals with T5, Cholinesterase. Nature of the assay: Inhibition of equine BChE using BTChI as substrate.
Assay [10] deals with T4, Acetylcholinesterase. Description: Inhibition of electric eel AChE using ATChI as substrate.
Assay [11] deals with T1, Amyloid-beta precursor protein. Description: Inhibition of amyloid beta 1 to 42 (unknown origin) self induced aggregation at 25 uM by ThT fluorescence assay relative to control.
Assay [12] addresses T6, Acetylcholinesterase (Rattus norvegicus, UniProt P37136).
T6 sequence (P37136 whole entry): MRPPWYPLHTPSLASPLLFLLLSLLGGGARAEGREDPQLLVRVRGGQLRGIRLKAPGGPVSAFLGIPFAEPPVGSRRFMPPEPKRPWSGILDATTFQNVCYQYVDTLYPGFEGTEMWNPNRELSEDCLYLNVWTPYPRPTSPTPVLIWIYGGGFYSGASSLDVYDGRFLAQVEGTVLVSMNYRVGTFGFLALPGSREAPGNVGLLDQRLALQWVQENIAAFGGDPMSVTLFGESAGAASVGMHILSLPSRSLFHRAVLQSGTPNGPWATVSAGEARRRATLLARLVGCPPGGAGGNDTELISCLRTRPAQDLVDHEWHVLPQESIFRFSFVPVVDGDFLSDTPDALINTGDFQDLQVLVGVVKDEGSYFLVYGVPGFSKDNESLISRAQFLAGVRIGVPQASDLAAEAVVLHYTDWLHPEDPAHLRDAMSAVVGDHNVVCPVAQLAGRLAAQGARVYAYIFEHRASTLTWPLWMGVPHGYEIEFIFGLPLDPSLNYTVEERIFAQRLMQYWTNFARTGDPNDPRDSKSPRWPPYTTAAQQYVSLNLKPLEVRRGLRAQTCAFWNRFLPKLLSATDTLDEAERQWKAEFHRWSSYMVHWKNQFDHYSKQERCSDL
Description: Inhibition of rat cortex homogenate AChE by Ellman's method. It is filed as tissue-based.

For assay [13], the target named is T1, Amyloid-beta precursor protein. Description: Inhibition of amyloid beta 42 (unknown origin) self aggregation incubated for 48 hrs by fluoroMax-4 spectrofluorometeric analysis.
Assay [14] addresses T3, Acetylcholinesterase. Nature of the assay: Inhibition of human recombinant AChE preincubated for 5 mins followed by substrate addition measured every 2 mins by Ellmans method.
In assay [15] the target is T2, Cholinesterase. Description: Inhibition of human recombinant BChE by Ellmans method preincubated for 5 mins followed by substrate addition measured every 2 mins.
Assay [16] deals with T1, Amyloid-beta precursor protein. Description: Inhibition of amyloid beta 1 to 42 (unknown origin) aggregation at 10 uM for 24 hrs by ThT fluorometric assay relative to control.
Assay [17] concerns the target T3, Acetylcholinesterase. Description: Inhibition of human AChE.
For assay [18], the target named is T2, Cholinesterase. Nature of the assay: Inhibition of human BChE.
Assay [19] concerns the target T1, Amyloid-beta precursor protein. Description: Inhibition of amyloid beta 42 (unknown origin) aggregation at 80 uM relative to control.
Assay [20] has as its target T7, Acetylcholinesterase (Torpedo californica, UniProt P04058). Nature of the assay: Inhibition of pacific electric ray AChE. Further details: species or system Tetronarce californica.
Assay [21] deals with T1, Amyloid-beta precursor protein. Nature of the assay: Inhibition of amyloid beta 42 (unknown origin) aggregation at 50 uM for 24 hrs by thioflavin T fluorescence method relative to control.
Assay [22] has as its target T3, Acetylcholinesterase. Nature of the assay: Inhibition of human recombinant AChE by spectrophotometer based Ellman's method.
Assay [23] addresses T1, Amyloid-beta precursor protein. Description: Inhibition of amyloid beta 42 (unknown origin) fibrillization at 44 uM relative to control.
For assay [24], the target named is T5, Cholinesterase. Nature of the assay: Inhibition of equine BChE incubated for 15 mins by Ellman's method.
The target of assay [25] is T1, Amyloid-beta precursor protein. Description: Inhibition of amyloid beta 42 (unknown origin) aggregation at 10 uM for 24 hrs by ThT fluorescence assay relative to control.
For assay [26] the target is unchanged. Description: Inhibition of amyloid beta 1 to 42 (unknown origin) aggregation at 50 uM measured every 10 mins for 72 hrs by ThT fluorometric assay relative to control.
Assay [27] deals with Microtubule-associated protein tau (Homo sapiens) (UniProt P10636). Description: Inhibition of tau (306 to 336 residue) (unknown origin) aggregation at 50 uM incubated overnight by ThT fluorometric assay relative to control.
Assay [28] has as its target T7, Acetylcholinesterase. Description: Inhibition of pacific electric ray AChE incubated for 15 mins. Further details: species or system Tetronarce californica.
Assay [29] addresses T1, Amyloid-beta precursor protein. Nature of the assay: Inhibition of amyloid beta 42 (unknown origin) self aggregation at 80 uM incubated for 24 hrs by fluoroscence emission relative to control.
The target of assay [30] is T4, Acetylcholinesterase. Nature of the assay: Inhibition of electric eel AChE.
The target in assay [31] is T1, Amyloid-beta precursor protein. Description: Inhibition of amyloid beta 42 (unknown origin) aggregation at 25 uM relative to control.

T4 sequence (O42275 whole entry): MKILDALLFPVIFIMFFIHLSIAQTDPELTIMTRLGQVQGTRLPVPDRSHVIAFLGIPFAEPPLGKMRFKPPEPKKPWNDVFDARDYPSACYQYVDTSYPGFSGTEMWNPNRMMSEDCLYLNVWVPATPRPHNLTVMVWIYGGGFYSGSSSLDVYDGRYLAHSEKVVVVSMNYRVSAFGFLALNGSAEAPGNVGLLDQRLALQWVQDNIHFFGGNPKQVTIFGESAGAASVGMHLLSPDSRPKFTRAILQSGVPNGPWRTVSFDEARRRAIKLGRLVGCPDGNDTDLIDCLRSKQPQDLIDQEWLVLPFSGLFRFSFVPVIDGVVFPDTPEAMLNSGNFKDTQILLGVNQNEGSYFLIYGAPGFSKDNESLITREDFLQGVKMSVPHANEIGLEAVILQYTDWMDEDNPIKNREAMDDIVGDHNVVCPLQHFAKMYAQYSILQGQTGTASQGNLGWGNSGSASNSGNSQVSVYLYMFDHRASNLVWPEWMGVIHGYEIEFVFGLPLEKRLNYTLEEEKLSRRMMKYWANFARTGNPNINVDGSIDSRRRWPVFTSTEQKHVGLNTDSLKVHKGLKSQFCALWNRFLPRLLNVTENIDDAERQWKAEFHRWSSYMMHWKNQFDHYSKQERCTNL
T3 sequence (P22303 whole entry): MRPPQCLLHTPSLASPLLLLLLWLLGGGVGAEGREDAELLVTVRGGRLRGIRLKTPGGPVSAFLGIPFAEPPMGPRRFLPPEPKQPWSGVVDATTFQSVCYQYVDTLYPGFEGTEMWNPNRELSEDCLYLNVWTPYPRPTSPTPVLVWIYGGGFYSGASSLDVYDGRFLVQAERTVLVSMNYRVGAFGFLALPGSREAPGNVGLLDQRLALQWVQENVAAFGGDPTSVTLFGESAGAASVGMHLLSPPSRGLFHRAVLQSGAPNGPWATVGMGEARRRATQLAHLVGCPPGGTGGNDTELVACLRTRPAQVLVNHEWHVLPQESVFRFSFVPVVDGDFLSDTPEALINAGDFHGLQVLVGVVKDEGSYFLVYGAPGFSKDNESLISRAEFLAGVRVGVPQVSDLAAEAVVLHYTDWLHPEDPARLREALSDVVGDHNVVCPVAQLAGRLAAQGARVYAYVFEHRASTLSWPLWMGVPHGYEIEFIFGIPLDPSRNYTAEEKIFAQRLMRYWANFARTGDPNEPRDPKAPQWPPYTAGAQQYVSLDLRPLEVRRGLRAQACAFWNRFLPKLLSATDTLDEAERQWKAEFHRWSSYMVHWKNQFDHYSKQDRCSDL
T1 sequence (P05067 whole entry): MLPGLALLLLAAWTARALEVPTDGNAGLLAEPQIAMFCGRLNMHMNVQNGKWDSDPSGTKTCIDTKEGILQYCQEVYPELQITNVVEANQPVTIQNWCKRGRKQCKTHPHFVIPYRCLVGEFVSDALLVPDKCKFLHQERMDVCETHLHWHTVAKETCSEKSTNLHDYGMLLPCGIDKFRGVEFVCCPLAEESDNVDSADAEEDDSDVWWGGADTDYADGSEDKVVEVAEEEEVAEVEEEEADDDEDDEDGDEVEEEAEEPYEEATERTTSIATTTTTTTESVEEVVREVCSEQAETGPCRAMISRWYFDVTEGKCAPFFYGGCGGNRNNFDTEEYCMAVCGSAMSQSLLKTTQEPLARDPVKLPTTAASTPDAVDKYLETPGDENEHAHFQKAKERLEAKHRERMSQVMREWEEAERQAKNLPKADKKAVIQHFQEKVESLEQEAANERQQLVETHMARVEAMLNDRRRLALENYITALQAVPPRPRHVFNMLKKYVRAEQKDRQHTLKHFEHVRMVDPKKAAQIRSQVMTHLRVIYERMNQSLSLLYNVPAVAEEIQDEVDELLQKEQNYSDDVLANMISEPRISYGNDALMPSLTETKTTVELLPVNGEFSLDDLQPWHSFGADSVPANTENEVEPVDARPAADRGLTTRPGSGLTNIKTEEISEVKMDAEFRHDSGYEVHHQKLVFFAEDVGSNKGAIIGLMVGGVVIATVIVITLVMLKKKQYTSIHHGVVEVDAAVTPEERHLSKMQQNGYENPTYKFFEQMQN
T2 sequence (P06276 whole entry): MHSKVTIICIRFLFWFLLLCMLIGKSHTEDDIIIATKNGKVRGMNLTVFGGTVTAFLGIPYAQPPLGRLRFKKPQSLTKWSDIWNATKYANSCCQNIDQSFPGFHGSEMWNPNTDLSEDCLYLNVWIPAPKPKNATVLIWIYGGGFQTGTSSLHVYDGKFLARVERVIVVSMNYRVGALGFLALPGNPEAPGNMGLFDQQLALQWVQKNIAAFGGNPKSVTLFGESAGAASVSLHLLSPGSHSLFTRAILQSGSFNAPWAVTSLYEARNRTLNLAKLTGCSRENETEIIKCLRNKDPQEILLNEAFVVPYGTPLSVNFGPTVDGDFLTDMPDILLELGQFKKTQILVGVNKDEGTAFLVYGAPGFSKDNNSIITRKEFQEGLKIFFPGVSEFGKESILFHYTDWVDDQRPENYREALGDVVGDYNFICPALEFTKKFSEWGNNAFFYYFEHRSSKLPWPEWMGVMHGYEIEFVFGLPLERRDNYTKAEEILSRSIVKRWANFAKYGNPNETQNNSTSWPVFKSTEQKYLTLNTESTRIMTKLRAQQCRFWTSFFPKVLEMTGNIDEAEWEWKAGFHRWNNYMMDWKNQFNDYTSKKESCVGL
T5 sequence (P81908 whole entry): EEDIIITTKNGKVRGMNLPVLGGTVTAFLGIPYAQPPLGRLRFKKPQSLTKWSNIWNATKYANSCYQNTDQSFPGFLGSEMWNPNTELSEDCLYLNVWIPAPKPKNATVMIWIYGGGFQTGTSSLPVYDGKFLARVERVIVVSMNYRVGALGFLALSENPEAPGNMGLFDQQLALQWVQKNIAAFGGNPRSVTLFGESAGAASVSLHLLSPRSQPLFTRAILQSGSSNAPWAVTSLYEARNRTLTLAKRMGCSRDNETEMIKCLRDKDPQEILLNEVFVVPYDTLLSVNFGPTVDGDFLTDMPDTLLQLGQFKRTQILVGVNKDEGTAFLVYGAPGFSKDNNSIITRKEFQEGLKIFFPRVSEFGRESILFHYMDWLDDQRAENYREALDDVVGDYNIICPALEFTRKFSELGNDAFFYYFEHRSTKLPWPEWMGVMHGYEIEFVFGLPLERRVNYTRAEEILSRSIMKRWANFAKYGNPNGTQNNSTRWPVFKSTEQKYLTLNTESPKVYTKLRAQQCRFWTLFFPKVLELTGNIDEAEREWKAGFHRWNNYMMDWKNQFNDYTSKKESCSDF
T7 sequence (P04058 whole entry): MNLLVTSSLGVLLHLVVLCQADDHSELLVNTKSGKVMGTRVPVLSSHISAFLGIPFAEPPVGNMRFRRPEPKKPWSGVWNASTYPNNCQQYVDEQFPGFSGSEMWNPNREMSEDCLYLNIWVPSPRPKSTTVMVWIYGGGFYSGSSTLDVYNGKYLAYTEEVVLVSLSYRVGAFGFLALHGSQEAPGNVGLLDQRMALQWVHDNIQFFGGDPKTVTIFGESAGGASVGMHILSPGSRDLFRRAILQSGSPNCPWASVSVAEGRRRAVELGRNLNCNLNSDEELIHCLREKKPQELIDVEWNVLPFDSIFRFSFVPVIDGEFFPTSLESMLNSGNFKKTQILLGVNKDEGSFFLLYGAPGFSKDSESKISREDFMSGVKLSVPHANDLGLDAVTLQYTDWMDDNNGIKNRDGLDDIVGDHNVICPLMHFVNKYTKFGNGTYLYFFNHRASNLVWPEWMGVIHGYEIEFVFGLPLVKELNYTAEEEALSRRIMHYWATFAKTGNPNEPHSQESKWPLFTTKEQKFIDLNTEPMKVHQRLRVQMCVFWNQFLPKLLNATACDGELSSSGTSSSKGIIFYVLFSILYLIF
Microtubule-associated protein tau (Homo sapiens), sequence (P10636 whole entry): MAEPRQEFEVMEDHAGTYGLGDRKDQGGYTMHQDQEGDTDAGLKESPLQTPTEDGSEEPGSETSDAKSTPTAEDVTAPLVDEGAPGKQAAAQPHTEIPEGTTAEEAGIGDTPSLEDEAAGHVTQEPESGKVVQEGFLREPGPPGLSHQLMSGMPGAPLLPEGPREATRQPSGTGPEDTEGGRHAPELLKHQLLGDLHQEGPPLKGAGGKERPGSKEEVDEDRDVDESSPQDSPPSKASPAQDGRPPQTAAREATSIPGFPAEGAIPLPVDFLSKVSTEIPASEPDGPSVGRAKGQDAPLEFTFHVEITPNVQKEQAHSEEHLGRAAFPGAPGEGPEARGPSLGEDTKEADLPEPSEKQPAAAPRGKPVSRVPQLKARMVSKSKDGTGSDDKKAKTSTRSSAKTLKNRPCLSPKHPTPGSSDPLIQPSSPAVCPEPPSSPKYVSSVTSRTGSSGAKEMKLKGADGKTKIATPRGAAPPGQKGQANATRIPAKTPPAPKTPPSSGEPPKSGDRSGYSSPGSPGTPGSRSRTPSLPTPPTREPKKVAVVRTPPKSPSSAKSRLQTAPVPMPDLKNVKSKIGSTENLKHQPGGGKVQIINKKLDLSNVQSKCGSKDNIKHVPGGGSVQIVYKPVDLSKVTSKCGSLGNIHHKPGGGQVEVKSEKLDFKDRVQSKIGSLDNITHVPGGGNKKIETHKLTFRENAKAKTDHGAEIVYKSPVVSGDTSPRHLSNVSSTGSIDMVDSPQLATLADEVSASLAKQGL
Beta-secretase 1, sequence (P56817 whole entry): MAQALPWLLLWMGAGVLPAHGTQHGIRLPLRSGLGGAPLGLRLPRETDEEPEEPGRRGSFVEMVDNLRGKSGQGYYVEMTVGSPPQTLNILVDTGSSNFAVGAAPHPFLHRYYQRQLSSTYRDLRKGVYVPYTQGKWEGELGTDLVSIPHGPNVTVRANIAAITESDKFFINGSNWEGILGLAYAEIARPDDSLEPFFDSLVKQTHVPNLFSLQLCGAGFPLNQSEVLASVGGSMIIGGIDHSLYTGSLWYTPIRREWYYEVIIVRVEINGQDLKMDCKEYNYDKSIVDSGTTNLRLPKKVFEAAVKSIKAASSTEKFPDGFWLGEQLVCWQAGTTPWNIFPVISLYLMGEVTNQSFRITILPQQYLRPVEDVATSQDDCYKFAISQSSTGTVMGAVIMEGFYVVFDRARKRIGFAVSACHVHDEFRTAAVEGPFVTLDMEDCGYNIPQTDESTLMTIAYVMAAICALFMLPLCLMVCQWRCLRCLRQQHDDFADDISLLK

Turning to `CN(C)CCN1CCN(c2ccc(C(=O)/C=C/c3cc4ccccc4o3)cc2)CC1`, in assay [1], the inhibition came out at 94.6%.
`O=C(C[n+]1ccc2ccccc2c1)Nc1ccccc1Br` registered an inhibition in assay [2] of 18%. In addition, the IC50 came out at 12 µM at Cholinesterase [3] and 13 µM on Acetylcholinesterase [4].
Turning to `CCc1cc(-c2nnc(Nc3ccccc3Cl)s2)c(O)cc1O`, the inhibition in [5] is 55.8%. The IC50 against Acetylcholinesterase [6] was found to be 0.031 µM; on Cholinesterase [7] it was 18.3 µM.
In the case of `CCCOc1ccc2c(C)cc(=S)oc2c1OCCC`, the inhibition is 57.2% against Beta-secretase 1 and 76.7% in [8]. Moreover, the IC50 came out at 17 µM at Cholinesterase [9] and 5.63 µM against Acetylcholinesterase [10].
For the molecule `CCN(CCCCCCOc1ccc(/C=C/C(=O)c2c(O)cc(OC)c(O)c2OC)cc1)Cc1ccccc1OC`, in assay [11], the inhibition turned out to be 78%. At Acetylcholinesterase [12], the IC50 was found to be 0.41 µM.
As for `O=C(NCCCNc1c2c(nc3cc(Cl)ccc13)CCCC2)c1nc2ccc([N+](=O)[O-])cc2s1`, the figures for the IC50 (in [13]; on Acetylcholinesterase [14]; on Cholinesterase [15]) were 3.8 µM, 0.018 µM and 4660 µM, respectively.
As for `O=S(=O)(NCC1CCN(Cc2ccccc2)CC1)c1ccc(-c2ccccc2)cc1`, the inhibition in [16] was 60.7%.
Consider `S=C(NCCCCNc1c2c(nc3ccccc13)CCCC2)Nc1c[nH]c2ccccc12`, for which the IC50 against Acetylcholinesterase [17] came to 0.025 µM; against Cholinesterase [18] it was 0.076 µM.
In [19], `COc1cccc2cc(C(=O)NCCCNc3c4c(nc5cc(Cl)ccc35)CCCC4)oc12` showed an inhibition of 57.8%. In addition, the 50% inhibitory concentration (IC50) against Acetylcholinesterase [20] was found to be 0.13 µM.
`CC1=C(NC2CCN(Cc3ccccc3)CC2)C(=O)c2ccccc2C1=O` came in with an inhibition in [21] of 52%. Further, at Acetylcholinesterase [22], the IC50 is 47.5 µM.
In the case of `COC(=O)[C@H]1[C@H]2C[C@@H]3c4[nH]c5cc(OC)ccc5c4CCN3C[C@H]2C[C@@H](OC(=O)c2cc(OC)c(OC)c(OC)c2)[C@@H]1OC` [RESERPINE], the IC50 against Acetylcholinesterase [17] was found to be 1.7 µM; against Cholinesterase [18], 2.8 µM. In assay [23], this molecule gave an inhibition of 68%.
As for `CN(C)/C=C/C(=O)c1cc2ccc(OCc3cn(Cc4ccc(F)c(F)c4)nn3)cc2oc1=O`, the IC50 against Cholinesterase [24] turned out to be 21.7 µM. For the same molecule, the inhibition in assay [25] came to 32.6%.
Take `Clc1ccc2c(NCCCCCN3c4ccccc4Sc4ccccc43)c3c(nc2c1)CCCC3`: the inhibition worked out at 74.1% in assay [26] and 50.5% in [27]. For the same molecule, the figures for the IC50 against Acetylcholinesterase [17] and on Cholinesterase [18] were 0.008 µM and 0.19 µM, respectively.
Turning to `COc1ccc(C(=O)CCC(=O)NCCCNc2c3c(nc4ccccc24)CCCC3)c2ccccc12`, half-maximal inhibition on Acetylcholinesterase [28] (IC50) required 0.12 µM. Besides, the inhibition in assay [29] was 70.5%.
Turning to `COC(=O)C(C)c1ccc(-c2ccc(C(=O)/C=C/c3ccc(CN4CCCC4)c(O)c3)cc2)c(F)c1` (stereo unspecified), on Acetylcholinesterase [30], half-maximal inhibition (IC50) was put at 7.15 µM. In [31], this molecule registered an inhibition of 70.7%.
